Here are results for seven molecules from PubChem BioAssay (NCI).

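How tested: cells in 96-well plates exposed to compound for 48 hours at five concentrations. TGI: concentration producing complete growth inhibition.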

Some test systems named below: DU-145 prostate; SK-MEL-2 melanoma; SF-268 CNS; HT29 colon; COLO 205 colon; UACC-62 melanoma; NCI/ADR-RES ovarian; HOP-62 NSCLC; SF-539 CNS; U251 CNS; HCT-116 colon; A549 NSCLC; 786-0 renal; CCRF-CEM leukemia; T-47D breast.
Test in all cases: NCI anticancer screen, dose series, 48 h

On to `CCCCCCCCCCCCC1N=C(N)N2CCCC2=C1C(=O)OC` (stereo not given), for which the TGI with DU-145 prostate came out at 21.4 µM; in the assay on SK-MEL-2 melanoma it was 3.64 µM; with SF-268 CNS, 14.8 µM; with HT29 colon, 3.06 µM; in the assay with COLO 205 colon, 4.17 µM; in the assay with UACC-62 melanoma it was 3.36 µM. Further, the TGI was found to be 20.4 µM in the assay on NCI/ADR-RES ovarian; 9.95 µM with HOP-62 NSCLC; 13.2 µM with SF-539 CNS; 3.06 µM in the assay with U251 CNS; 3.34 µM in the assay with HCT-116 colon; 36.2 µM in the assay on A549 NSCLC. The TGI in the assay on 786-0 renal turned out to be 3.04 µM; in the assay with CCRF-CEM leukemia, 3.89 µM; in the assay on T-47D breast, 3.73 µM.

Regarding `Oc1ccc(SCc2cc(O)ccc2O)cc1`, the TGI was > 100 µM in the assay with DU-145 prostate; 39.2 µM in the assay on SK-MEL-2 melanoma; > 62.7 µM in the assay on SF-268 CNS; > 100 µM in the assay on HT29 colon; 38.8 µM in the assay with COLO 205 colon; 53.2 µM in the assay with UACC-62 melanoma. The TGI with NCI/ADR-RES ovarian is > 57.5 µM; in the assay on HOP-62 NSCLC, 43.7 µM; with SF-539 CNS it was 12.4 µM; with U251 CNS, 28.4 µM; in the assay on HCT-116 colon, 26.1 µM; in the assay on A549 NSCLC, > 100 µM. The figures for the TGI in the assay with 786-0 renal, in the assay on CCRF-CEM leukemia and with T-47D breast were 36.4 µM, > 100 µM and 30.5 µM, respectively.

For `Clc1ccc(C2=NCON=C2c2ccc(Cl)cc2)cc1`, the TGI in the assay with DU-145 prostate was > 100 µM; in the assay on SK-MEL-2 melanoma it was 46.1 µM; in the assay with SF-268 CNS, 57.7 µM; in the assay with HT29 colon, 31.1 µM; in the assay on COLO 205 colon, 29.9 µM; with UACC-62 melanoma, 37.8 µM. Further, the TGI in the assay on NCI/ADR-RES ovarian was 71.2 µM; in the assay on HOP-62 NSCLC it was > 100 µM; in the assay on SF-539 CNS, 35.5 µM; in the assay on U251 CNS, 40.1 µM; in the assay on HCT-116 colon it was 31.3 µM; with A549 NSCLC it was > 100 µM. Further, the TGI stood at 42.7 µM in the assay with 786-0 renal, 53.1 µM in the assay on CCRF-CEM leukemia and 22.8 µM in the assay on T-47D breast.

Regarding `c1ccc(-c2c(-c3[nH]c4ccccc4c3-c3ccccc3)[nH]c3ccccc23)cc1`, the TGI was 10.8 µM with DU-145 prostate; 22.1 µM in the assay with SK-MEL-2 melanoma; 21.5 µM with SF-268 CNS; > 100 µM with HT29 colon; 3.53 µM in the assay with COLO 205 colon; 21.6 µM in the assay with UACC-62 melanoma. Besides, the TGI was found to be 13.3 µM with NCI/ADR-RES ovarian; 5.03 µM in the assay on HOP-62 NSCLC; 21.3 µM in the assay on SF-539 CNS; 14.8 µM with U251 CNS; 13.4 µM with HCT-116 colon; 13.5 µM in the assay on A549 NSCLC. Further, the values for the TGI in the assay on 786-0 renal, with CCRF-CEM leukemia and in the assay with T-47D breast were 4.08 µM, 14 µM and 8.44 µM, respectively.

As to `CN(/N=C\c1ccc2ccccc2c1)C1=NCCCN1`, the TGI was > 100 µM with DU-145 prostate; 35 µM with SK-MEL-2 melanoma; 60.2 µM in the assay on SF-268 CNS; 31.1 µM in the assay with HT29 colon; 25.3 µM in the assay on COLO 205 colon; 34.5 µM in the assay with UACC-62 melanoma. The TGI turned out to be 74.4 µM in the assay with NCI/ADR-RES ovarian; 27.4 µM in the assay with HOP-62 NSCLC; 40.3 µM in the assay with SF-539 CNS; 96.6 µM with U251 CNS; 28.9 µM with HCT-116 colon; 24.7 µM in the assay on A549 NSCLC. Further, the figures for the TGI with 786-0 renal, in the assay with CCRF-CEM leukemia and in the assay with T-47D breast were 29.1 µM, 48.6 µM and > 100 µM, respectively.

On to `COc1cc2c(cc1OC)C(=O)/C(=C/c1ccc(N(C)C)cc1)CC2`, for which the TGI with DU-145 prostate, in the assay on SK-MEL-2 melanoma, in the assay with SF-268 CNS, in the assay with HT29 colon, in the assay with COLO 205 colon and in the assay with UACC-62 melanoma was > 10 µM in each case. Further, the TGI in the assay with NCI/ADR-RES ovarian, in the assay on HOP-62 NSCLC, in the assay with SF-539 CNS, in the assay on U251 CNS, with HCT-116 colon and in the assay on A549 NSCLC was > 10 µM each time. The TGI with 786-0 renal, in the assay with CCRF-CEM leukemia and with T-47D breast was > 10 µM throughout.

Consider `CC(C)=CCc1c2c(c(O)c3c(=O)c4c(oc13)-c1ccc(O)cc1OC4C=C(C)C)C=CC(C)(C)O2` (stereo not given), for which the TGI turned out to be 27.5 µM in the assay with DU-145 prostate; 26.1 µM in the assay on SK-MEL-2 melanoma; 29.8 µM in the assay with SF-268 CNS; 28.9 µM with HT29 colon; 37.1 µM in the assay on COLO 205 colon; 27.4 µM in the assay on UACC-62 melanoma. Further, the TGI in the assay with NCI/ADR-RES ovarian amounted to 34.6 µM; in the assay on HOP-62 NSCLC, 28.4 µM; with SF-539 CNS, 32.8 µM; in the assay on U251 CNS it was 25.3 µM; in the assay with HCT-116 colon it was 21 µM; in the assay on A549 NSCLC it was 24.6 µM. Also, the values for the TGI in the assay on 786-0 renal, in the assay with CCRF-CEM leukemia and in the assay with T-47D breast were 23.9 µM, 15.5 µM and 23 µM, respectively.
